{"source": "patent US20170355760A1", "about": "“METHODS FOR MODULATING THE GLYCOSYLATION PROFILE OF RECOMBINANT PROTEINS USING SUGARS” (AbbVie Inc., priority 2014, published 2017)", "assay_type_in_all_cases": "cell-based, Chinese Hamster", "key": {"CHO cell line 1 [1]": {"test_system": "CHO cell line 1", "experiment": "Viable cell density and cell viability of shaker flask cultures (trypan blue exclusion, Cedex)", "settings": "for peak VCD compared to control: 50 mM supplementation; for cell viability profile: 1-50 mM supplementation; for cell growth compared to the unsupplemented control: sugar 1, 10, 25, 50 mM in basal media, shaker flask", "protocol": "(§1) A recombinant Chinese Hamster Ovary (CHO) cell line (Cell Line 1) expressing a humanized monoclonal antibody (Antibody 1) was evaluated in shaker flask cultures. The cell line was of CHO DUX-B11 origin based on a dhfr (dihydrofolate reductase) expression system, and cultured in a chemically defined basal and chemically-defined feed media. Each of the respective cultures were supplemented with selected monosaccharides and oligosaccharides to evaluate for their potential impact on the resulting N-glycan oligosaccharide profile. All sugars were purchased from Sigma-Aldrich (St. Louis, Mo.), and dissolved at the concentrations referenced below in the cell culture media. Unless specified otherwise, all sugars evaluated were in their D-form. In preparation of the cultures, the cell lines were expanded through seed train inoculums to generate enough cells for inoculation.\nViable cell density (VCD) and cell viability values were measured through trypan blue exclusion via Cedex automated cell counters (Roche Applied Science, Indianapolis, Ind.). Initial viable cell density and viability in the cultures were targeted towards the same value. Immediately after inoculation, only a handful of each of the shake flasks were sampled for VCD and viability, and the results were averaged. All Day 0 values amongst these flasks were thus reported to be at this average. The cultures were harvested on Process Days 9-10, or when cell viability dropped below 50%, whichever occurred first."}, "[2]": {"test_system": "Cell Line 1 expressing a humanized monoclonal antibody (Antibody 1)", "experiment": "N-glycan oligosaccharide profiling of Protein A purified antibody (reduced heavy chain, RP-HPLC/Q-TOF MS)", "settings": "for redirecting the N-glycan glycoform profile: 250 mL shaker flask cultures, defined supplementation range", "protocol": "as §1\nPurified antibodies subjected to additional analytical characterization were purified using MabSelect™ Protein A (GE Healthcare, Piscataway, N.J.) using a low pH, step elution gradient, followed by neutralization, and subsequently buffer exchanged when necessary using Amicon centrifugal filters (EMD Millipore, Billerica, Mass.) according to the manufacturer's recommended procedure.\nThe heavy chain of adalimumab was analyzed using an HPLC (Agilent 1260, Santa Clara, Calif.) with a reversed phase column (Vydac, C4, 1×150 mm, 5μ particle size) coupled to a Q-TOF mass spectrometer (Agilent, 6510). Protein A purified samples from cell culture harvests were first reduced using DTT at 37° C. for 30 minutes. The samples were then loaded using 95% mobile phase A (0.08% formic acid and 0.02% TFA in water) and 5% mobile phase B (0.08% formic acid and 0.02% TFA in acetonitrile), and then eluted using a gradient of increasing levels of mobile phase B. The flow rate was 50 μL/min and the column temperature was set to 60° C. The mass spectrometer was operated in positive ion mode with an ion spray voltage of 4500 volts and a source temperature of 350° C. Resolved peaks centered on the known masses of different N-glycans was subsequently used to identify the different types of N-glycans, and the relative peak heights were used to quantitate their respective levels."}, "CHO cell line 1 [3]": {"test_system": "CHO cell line 1", "experiment": "Harvest antibody titer (Poros A Protein A affinity HPLC)", "settings": "for harvest titer compared to unsupplemented control: 1-50 mM supplementation", "protocol": "as §1\nAntibody titers were measured from crude cell culture harvests on a Poros A™ (Life Technologies, Carlsbad, Calif.) affinity column using an Agilent (Santa Clara, Calif.) 1200 Series HPLC, or equivalent, operating with a low pH, step elution gradient with detection at 280 nm. Absolute concentrations were assigned with respect to reference standard calibration curves."}, "[4]": {"settings": "1-50 mM vs unsupplemented control"}, "[5]": {"settings": "the higher concentrations evaluated"}, "[6]": {"settings": "each of the concentrations evaluated (1-50 mM)"}, "[7]": {"settings": "across all supplemented concentrations (1-50 mM)"}}}
{"smiles": "OC[C@H]1O[C@@H](O[C@@H]2[C@@H](CO)OC(O)(CO)[C@H]2O)[C@H](O)[C@@H](O)[C@H]1O", "note": "(mixture of isomers) [lactulose]", "values": [{"measurement": "peak VCD compared to control", "setting": "CHO cell line 1 [1]", "result": "drop in VCD"}, {"measurement": "cell viability profile", "setting": "CHO cell line 1 [1]", "result": "no adverse impact"}, {"measurement": "cell growth compared to the unsupplemented control", "setting": "CHO cell line 1 [1]", "result": "only the 50 mM level of this sugar had a slightly adverse impact to cell growth performance"}, {"measurement": "G0F N-glycan levels", "setting": "[2]; [4]", "result": "approximately equal drop"}, {"measurement": "N-glycan oligosaccharide profile change upon supplementation", "setting": "[2]; [4]", "result": "lactulose dependent increase in Man5, G0F-GlcNAc, and G1F N-glycans"}, {"measurement": "redirecting the N-glycan glycoform profile", "setting": "[2]", "result": "toward the high mannose type"}, {"measurement": "harvest titer ratio", "setting": "CHO cell line 1 [3]; 50 mM", "result": 0.89}, {"measurement": "harvest titer compared to unsupplemented control", "setting": "CHO cell line 1 [3]", "result": "only nominally impacted"}]}
{"smiles": "OC[C@H]1O[C@@H](O[C@H]2[C@H](O)[C@@H](O)C(O)O[C@@H]2CO)[C@H](O)[C@@H](O)[C@H]1O", "note": "(stereo partly drawn) [lactose]", "values": [{"measurement": "peak VCD compared to control", "setting": "CHO cell line 1 [1]", "result": "noticeably lower than the control"}, {"measurement": "cell viability profile", "setting": "CHO cell line 1 [1]", "result": "no adverse impact"}, {"measurement": "cell growth compared to the unsupplemented control", "setting": "CHO cell line 1 [1]", "result": "no adverse impact towards cell growth performance"}, {"measurement": "G0F N-glycan levels", "setting": "[2]; [4]", "result": "almost equal drop"}, {"measurement": "redirecting the N-glycan glycoform profile", "setting": "[2]", "result": "toward the complex, galactosylated type"}, {"measurement": "increase in G1F species", "setting": "[2]; at most, across 1-50 mM", "result": "≤ 4", "unit": "%"}, {"measurement": "increase in G2F species", "setting": "[2]; at most, across 1-50 mM", "result": "≤ 2", "unit": "%"}, {"measurement": "relative harvest titer", "setting": "CHO cell line 1 [3]; 1 mM (lowest across tested concentrations)", "result": 0.87}, {"measurement": "harvest titer compared to unsupplemented control", "setting": "CHO cell line 1 [3]", "result": "small decrease in harvest titers"}]}
{"smiles": "OC[C@H]1O[C@@](CO)(O[C@H]2O[C@H](CO)[C@@H](O)[C@H](O)[C@H]2O)[C@@H](O[C@H]2O[C@H](CO)[C@@H](O)[C@H](O)[C@H]2O)[C@@H]1O", "note": "[melezitose]", "values": [{"measurement": "peak VCD compared to control", "setting": "CHO cell line 1 [1]", "result": "drop in peak VCD"}, {"measurement": "cell viability profile", "setting": "CHO cell line 1 [1]", "result": "no adverse impact"}, {"measurement": "cell growth compared to the unsupplemented control", "setting": "CHO cell line 1 [1]", "result": "only the 50 mM condition had an adverse impact on cell growth"}, {"measurement": "increase in G1F", "setting": "[2]; 1 mM", "result": 1, "unit": "%"}, {"measurement": "increase in G1F", "setting": "[2]; 10 mM", "result": 9, "unit": "%"}, {"measurement": "increase in G1F", "setting": "[2]; 25 mM", "result": 20, "unit": "%"}, {"measurement": "increase in G1F", "setting": "[2]; 50 mM", "result": 28, "unit": "%"}, {"measurement": "G0 type glycans", "setting": "[2]; [4]", "result": "almost equal drop in relative value"}, {"measurement": "G2 N-glycan change", "setting": "[2]; [4]", "result": "mirrored these results, albeit at a much lower overall percent change"}, {"measurement": "N-glycan oligosaccharide profile change upon supplementation", "setting": "[2]; [4]", "result": "largest % impact on the protein glycosylation profile"}, {"measurement": "redirecting the N-glycan glycoform profile", "setting": "[2]", "result": "toward the complex, galactosylated type"}, {"measurement": "Man5 levels", "setting": "[2]; all tested concentrations", "result": "Reduced levels"}, {"measurement": "harvest titer ratio", "setting": "CHO cell line 1 [3]; 10 mM (lowest result observed)", "result": 0.82}, {"measurement": "harvest titer compared to unsupplemented control", "setting": "CHO cell line 1 [3]", "result": "nominally reduce the harvest titer"}]}
{"smiles": "OC[C@H]1O[C@H](OC[C@H]2OC(O)(CO)[C@@H](O)[C@@H]2O)[C@H](O)[C@@H](O)[C@@H]1O", "note": "(stereo partly drawn) [palatinose]", "values": [{"measurement": "cell viability profile", "setting": "CHO cell line 1 [1]", "result": "reasonably consistent with each other"}, {"measurement": "cell growth compared to the unsupplemented control", "setting": "CHO cell line 1 [1]", "result": "only the lowest concentration (1 mM) supported a cell growth profile that closely approximated that of the unsupplemented control"}, {"measurement": "peak VCD compared to the unsupplemented control", "setting": "CHO cell line 1 [1]; [5]", "result": "lower peak viable cell densities"}, {"measurement": "G0F N-glycan levels", "setting": "[2]; [4]", "result": "significant decrease"}, {"measurement": "N-glycan oligosaccharide profile change upon supplementation", "setting": "[2]; [4]", "result": "increase Man5, G0F-GlcNAc, G1F, and G2F N-glycans in a palatinose concentration-dependent manner"}, {"measurement": "redirecting the N-glycan glycoform profile", "setting": "[2]", "result": "toward the high mannose type"}, {"measurement": "harvest titer compared to unsupplemented control", "setting": "CHO cell line 1 [3]", "result": "slightly less antibody product"}]}
{"smiles": "O=C(CO)[C@H](O)[C@H](O)[C@H](O)CO", "note": "[psicose]", "values": [{"measurement": "cell viability profile", "setting": "CHO cell line 1 [1]", "result": "no significant changes"}, {"measurement": "peak VCD compared to the unsupplemented control", "setting": "CHO cell line 1 [1]; [6]", "result": "lower peak VCD"}, {"measurement": "G0F N-glycan levels", "setting": "[2]; [4]", "result": "dropped in an almost equal fashion"}, {"measurement": "N-glycan oligosaccharide profile change upon supplementation", "setting": "[2]; [4]", "result": "increase Man5, G0F-GlcNAc, and G1F species in a psicose concentration-dependent manner"}, {"measurement": "redirecting the N-glycan glycoform profile", "setting": "[2]", "result": "toward the high mannose type"}, {"measurement": "harvest titer compared to unsupplemented control", "setting": "CHO cell line 1 [3]", "result": "slightly lower compared to the control"}, {"measurement": "harvest titer ratio", "setting": "CHO cell line 1 [3]; [7]", "result": "> 0.88"}]}
{"smiles": "OC[C@H]1O[C@H](OC[C@H]2O[C@H](O[C@]3(CO)O[C@H](CO)[C@@H](O)[C@@H]3O)[C@H](O)[C@@H](O)[C@@H]2O)[C@H](O)[C@@H](O)[C@H]1O", "note": "[raffinose]", "values": [{"measurement": "cell viability profile", "setting": "CHO cell line 1 [1]", "result": "closely approximated each other"}, {"measurement": "cell growth compared to the unsupplemented control", "setting": "CHO cell line 1 [1]", "result": "comparable to the unsupplemented control up to a raffinose concentration of 10 mM"}, {"measurement": "peak VCD compared to the unsupplemented control", "setting": "CHO cell line 1 [1]; [5]", "result": "lower than that of the unsupplemented control"}, {"measurement": "redirecting the N-glycan glycoform profile", "setting": "[2]", "result": "toward the high mannose type"}, {"measurement": "increase in Man5, G0F-GlcNAc, and G1F compared to the unsupplemented control", "setting": "[2]; concentration-dependent, 1-50 mM", "result": "> 2", "unit": "%"}, {"measurement": "harvest titer compared to unsupplemented control", "setting": "CHO cell line 1 [3]", "result": "closely approximated each other"}]}
{"smiles": "OC[C@H]1O[C@H](O[C@H]2O[C@H](CO)[C@@H](O)[C@H](O)[C@H]2O)[C@H](O)[C@@H](O)[C@@H]1O", "note": "[trehalose]", "values": [{"measurement": "cell viability profile", "setting": "CHO cell line 1 [1]", "result": "not affected"}, {"measurement": "peak VCD compared to the unsupplemented control", "setting": "CHO cell line 1 [1]; [6]", "result": "lower peak VCD"}, {"measurement": "G0F N-glycan levels", "setting": "[2]; [4]", "result": "significant decrease"}, {"measurement": "N-glycan oligosaccharide profile change upon supplementation", "setting": "[2]; [4]", "result": "more Man5 and G0F-GlcNAc levels"}, {"measurement": "redirecting the N-glycan glycoform profile", "setting": "[2]", "result": "toward the high mannose type"}, {"measurement": "harvest titer compared to unsupplemented control", "setting": "CHO cell line 1 [3]", "result": "slightly lower values"}, {"measurement": "harvest titer ratio", "setting": "CHO cell line 1 [3]; [7]", "result": "> 0.85"}]}
{"smiles": "O=C(CO)[C@@H](O[C@H]1O[C@H](CO)[C@@H](O)[C@H](O)[C@H]1O)[C@H](O)[C@H](O)CO", "note": "[turanose]", "values": [{"measurement": "peak VCD compared to control", "setting": "CHO cell line 1 [1]", "result": "small nominal drop"}, {"measurement": "cell viability profile", "setting": "CHO cell line 1 [1]", "result": "did not show a very significant adverse impact"}, {"measurement": "cell growth compared to the unsupplemented control", "setting": "CHO cell line 1 [1]", "result": "did not show a very significant adverse impact towards cell growth"}, {"measurement": "increase in G1F", "setting": "[2]; 1 mM", "result": 0.2, "unit": "%"}, {"measurement": "increase in G2F", "setting": "[2]; 10 mM", "result": 3, "unit": "%"}, {"measurement": "increase in G2F", "setting": "[2]; 25 mM", "result": 7, "unit": "%"}, {"measurement": "increase in G1F", "setting": "[2]; 50 mM", "result": 14, "unit": "%"}, {"measurement": "N-glycan oligosaccharide profile change upon supplementation", "setting": "[2]; [4]", "result": "increase of G1F and G2F species, which came at the expense of the G0F and G0F-GlcNAc species"}, {"measurement": "redirecting the N-glycan glycoform profile", "setting": "[2]", "result": "toward the complex, galactosylated type"}, {"measurement": "drop in harvest titer", "setting": "CHO cell line 1 [3]; 50 mM (largest drop)", "result": 10, "unit": "%"}, {"measurement": "harvest titer compared to unsupplemented control", "setting": "CHO cell line 1 [3]", "result": "small drop in harvest titer"}]}
